From patent US8642591B2, “Composition containing amidine derivatives or carboxamide derivatives and steroids, as a medicament” (priority 2006, dated 2014)
Where a name gives a salt, the structure may show the parent alone. Read-outs that look alike come from different tables or passages of the source.

Test system: Human Skeletal Cells (SKM)
Assay: Protective effect on cell death induced by maitotoxin on human skeletal cells (SKM), WST-1 readout
Assay type: cell-based
Details: maitotoxin 24 h
Experimental: The principle of the test is the following: maitotoxin is a toxin which causes the opening of the calcium channels of cells. The resulting intra-cellular flow of calcium is at the origin of the death of the cell. During this process of cell death, a cysteine-dependent protease, calpain, is activated, and an abundance of free radicals is produced. The test consists of incubating the cells in the presence of the composition to be tested, in order to delay or inactivate cell death and thus determine the protective effect.
The myoblasts are seeded at 2500 cells per well in 96-well plates in a DMEM 10% FCS (foetal calf serum) culture medium supplemented with amphotericin B, human recombinant epidermal growth factor and dexamethasone. Three days after seeding, the cells have adhered to the base of the well, the differentiation of the cells to myotubes is induced by adding 100 μl of DMEM F12 medium containing 2% horse serum. After three more days, 100 μl of compound to be tested are placed at the bottom of the well. After incubation for one hour at 37° C. under an atmosphere of 5% CO2, the maitotoxin (MTX) (Wako, ref: 131-10731) is added to evaluate the protective effect (concentration-effect) of the compound to be tested on cell death.
After an incubation time of 24 h, the culture medium is replaced by a DMEM 10% FCS medium supplemented by WST-1. […] The cells are incubated for 1 hour in the presence of WST-1. Then the number of live cells is determined using a Perkin-Elmer Wallac Envision 2101 device by reading the absorbance at 450 nm. The concentration-effect of the products on the cell survival rate is then calculated.
The CE50 is deduced by linear regression: concentration with respect to the percentage of protection. The mathematical method used is the isobologram approach described in: “Drug synergism and dose-effect data analysis, Ronald J. Tallarida, Chapman & Hall/CRC, 2000”.

Compound `CC(C)C[C@H](NC(=N)c1ccc2c(c1)Nc1ccccc1S2)C(=O)N[C@H]1CCOC1O` (stereo partly drawn) [Example 5, N^1-[(3S)-2-hydroxytetrahydrofuran-3-yl]-N^2-[imino(10H-phenothiazin-2-yl)methyl]-L-leucinamide hydroiodide] has an EC50 (Homo sapiens, 24 h, read-out: EC50 μM After incubation for 24 h with the toxin, single substance (proportion 1), cell mortality rate induced by the toxin 84%) of 6.26 µM.

In the case of `CC(=O)OC1OCC[C@@H]1NC(=O)[C@H](CC(C)C)NC(=O)c1ccc2c(c1)Nc1ccccc1S2` (stereo partly drawn) [(3S)-3-{[N-(10H-phenothiazin-2-ylcarbonyl)-L-leucyl]amino}tetrahydrofuran-2-yl acetate], the EC50 (Homo sapiens, 24 h, read-out: EC50 μM After incubation for 24 h with the toxin, single substance (proportion 1), cell mortality rate induced by the toxin 97%) was 29.1 µM.

`CC(C)C[C@H](NC(=N)c1ccc2c(c1)Nc1ccccc1S2)C(=O)N[C@H]1CCOC1O` (stereo partly drawn) [Example 7, N^1-[(3S)-2-hydroxytetrahydrofuran-3-yl]-N^2-[imino(10H-phenothiazin-2-yl)methyl]-L-leucinamide hydrochloride] gave an EC50 (Homo sapiens, 24 h, read-out: EC50 μM After incubation for 24 h with the toxin, single substance (proportion 1), cell mortality rate induced by the toxin 96%) of 5.92 µM.

For `C[C@H]1C[C@@H]2[C@H]([C@@H](O)C[C@@]3(C)[C@H]2CC[C@]3(O)C(=O)CO)[C@@]2(C)C=CC(=O)C=C12` [α-methylprednisolone], the EC50 (single substance (proportion 1), cell mortality rate induced by the toxin 84%, read-out: EC50 μM After incubation for 24 h with the toxin) was 87.6 µM, the EC50 (single substance (proportion 1), cell mortality rate induced by the toxin 96%, read-out: EC50 μM After incubation for 24 h with the toxin) was 169 µM and the EC50 (single substance (proportion 1), cell mortality rate induced by the toxin 97%, read-out: EC50 μM After incubation for 24 h with the toxin) was 107 µM.
